The values that follow come from patent US7582655B2, “Antineoplastic compounds” (University of Saskatchewan, priority 2005, dated 2009).

Series [1] deals with human squamous cell carcinomas HSC-4. Put plainly: Cytotoxicity CC50, MTT assay, HSC-4. How it is done: (§1) In addition, the compounds were evaluated against human squamous cell carcinomas (HSC-2 and HSC-4) and human promyelocytic leukemia neoplasms (HL-60) and compared with normal cells, i.e. human gingival fibroblasts (HGF), human pulp cells (HPC) and human periodontal ligament fibroblasts (HPLF).
(§2) MTT stands for 3-(4,5-dimethylthiazol-2-yl)-2,5-diphenyltetrazolium bromide). The cells were incubated with varying concentrations of the compounds along with untreated cells for 24 h and the absorbance at 540 nm measured. In the case of the HL-60 assay, the trypan blue exclusion method was followed and cell viability was determined using a haemocytometer. The CC50 values were obtained from dose-response curves (Sakagami, H.; Satoh, K.; Ohata, H.; Takahashi, H.; Yoshida, H.; Iida, M.; Kuribayashi, N.; Sakagami, T.; Momose, K.; Takeda, M. Anticancer Res. 1996, 16, 2635-2644). The general methods used in culturing the cells employed in these cytotoxicity experiments have been described previously (Kawase, M.; Sakagami, H.; Motohashi, N.; Hauer, H.; Chatterjee, S. S.; Spengler, G.; Vigyikanne, A. V.; Molnár, A.; Molnár, J. In Vivo 2005, 19, 705-712; and Takeuchi, R.; Hoshijima, H.; Onuki, N.; Nagasaka, H.; Chowdhury, S. A.; Kawase, M.; Sakagami, H. Anticancer Res. 2005, 25, 4037-4042). In brief, the malignant cells were obtained from Professor Nagumo, Showa University, Japan. The HGF, HPC and HPLF cells were prepared from human periodontal tissue after obtaining informed consent according to the guidelines of Meikai University Ethics Committee, Japan (No. 0206). Since normal cells have a short lifespan, cells at the 3-7 population doubling time were used. With the exception of the HL-60 neoplasm, the cells were cultured in DMEM containing heat-inactivated FBS (10%) at 37° C. in a humidified carbon dioxide atmosphere and subcultured by trypsinization. The HL-60 cells were cultured in a similar fashion except that RPMI 1640 media was employed.

For another series, the system named is COLO 205. Put plainly: Human tumour cell line panel, colon cancer COLO 205. As to conditions: 48 h; read-out: Colon cancer cells, IC50(μM) COLO 205. The format is cell-based. As for the experimental part:
(§3) In addition, both 5-fluorouracil and melphalan were evaluated towards 57 cell lines. […] MG MID is the average of the potencies of the compound to approximately 50 neoplastic cell lines.

For another series, the system named is HCT 15. Put plainly: Human tumour cell line panel, colon cancer HCT 15. The format is cell-based. The settings on record: 48 h; read-out: Colon cancer cells, IC50(μM) HCT 15. How it is done: as §3
Series [2] has as its system human gingival fibroblasts (HGF). Put plainly: Cytotoxicity CC50, MTT assay, normal HGF cells. How it is done:
as §1, §2

The subject of series [3] is HSC-2, HSC-4 and HL-60 malignant cells. Put plainly: Average CC50 for malignant cells. As for the experimental part:
as §1, §2

The subject of series [4] is human squamous cell carcinomas HSC-2. Put plainly: Cytotoxicity CC50, MTT assay, HSC-2. How it is done:
as §1, §2

The subject of another series is SW 620. Put plainly: Human tumour cell line panel, colon cancer SW 620. It counts as cell-based. The settings on record: 48 h; read-out: Colon cancer cells, IC50(μM) SW 620. As for the experimental part:
as §3

The next series deals with KM 12. Put plainly: Human tumour cell line panel, colon cancer KM 12. It counts as cell-based. As to conditions: read-out: Colon cancer cells, IC50(μM) KM 12. How it is done:
as §3

A further series concerns human tumour cell lines. Put plainly: Panel of human tumour cell lines, all cell lines (mean graph midpoint). It counts as cell-based. As to conditions: mean graph midpoint, average of 49 (38-59) human tumour cell lines, 48 h incubation; read-out: All cell lines IC50. How it is done: A number of compounds of the invention were further assessed against numerous human malignant cell lines. An average of 49 cell lines from nine different neoplastic diseases, namely leukemia, melanoma, non-small cell lung, colon, central nervous system, ovarian, renal, prostate, and breast cancers were employed.
as §3

Series [5] has as its system human promyelocytic leukemia HL-60. Put plainly: Cytotoxicity CC50, trypan blue exclusion, HL-60. How it is done:
as §1, §2

The test system of series [6] is human periodontal ligament fibroblasts (HPLF). Put plainly: Cytotoxicity CC50, MTT assay, normal HPLF cells. How it is done: as §1, §2
In the next series the test system is HL 60. Put plainly: Human tumour cell line panel, leukemic HL 60. It counts as cell-based. As to conditions: 48 h; read-out: Leukemic cells, IC50(μM) HL 60. As for the experimental part:
as §3

The next series relates to RPMI 8226. Put plainly: Human tumour cell line panel, leukemic RPMI 8226. It counts as cell-based. The settings on record: 48 h; read-out: Leukemic cells, IC50(μM) RPMI 8226. How it is done:
as §3

In the next series the test system is K 562. Put plainly: Human tumour cell line panel, leukemic K 562. It counts as cell-based. As to conditions: 48 h; read-out: Leukemic cells, IC50(μM) K 562. How it is done: as §3
Another series concerns HCT 116. Put plainly: Human tumour cell line panel, colon cancer HCT 116. It counts as cell-based. As to conditions: 48 h; read-out: Colon cancer cells, IC50(μM) HCT 116. How it is done: as §3
Another series has as its system human pulp cells (HPC). Put plainly: Cytotoxicity CC50, MTT assay, normal HPC cells. As for the experimental part: as §1, §2
Series [7] relates to murine L-5178 lymphoma cells transfected with the human MDR1 gene. Put plainly: MDR reversal, rhodamine 123 fluorescence activity ratio. The settings on record: FAR >1 indicates MDR reversal; for FAR value 4 μg/ml: compound 4 μg/ml; for FAR value 40 μg/ml: compound 40 μg/ml. As for the experimental part: A solution of the test compound (2 mg/ml, 10 μl) in dimethylsulfoxide was added to aliquots of the cell suspension and incubated at room temperature for 10 minutes. […] The cells were washed twice and resuspended in PBS (pH 7.4) after which the fluorescence was measured using a Beckton Dickinson FACScan instrument. The fluorescence of the cells was measured in treated MDR cells (F1), untreated MDR cells (F2), treated parental cells (F3) […] were obtained from the following equation, viz (F1/F2)/(F3/F4).

In a further series the test system is SR. Put plainly: Human tumour cell line panel, leukemic SR. The format is cell-based. As to conditions: 48 h; read-out: Leukemic cells, IC50(μM) SR. As for the experimental part:
as §3

A further series has as its system HCC 2998. Put plainly: Human tumour cell line panel, colon cancer HCC 2998. It counts as cell-based. As to conditions: 48 h; read-out: Colon cancer cells, IC50(μM) HCC 2998. As for the experimental part:
as §3

Where [8] appears, read: read-out: CC50(μM) HSC-4, 24 h, MTT, average of two determinations.
Where [9] appears, read: read-out: CC50(μM) HGF, normal cells, 24 h, MTT.
[10] abbreviates: average CC50 for HSC-2, HSC-4 and HL-60 malignant cells.
[11] abbreviates: read-out: CC50(μM) HSC-2, 24 h, MTT, average of two determinations.
Setting [12] is: read-out: CC50(μM) HL-60, 24 h, trypan blue exclusion, average of two determinations.
The mark [13] stands for this setting: read-out: CC50(μM) HPLF, normal cells, 24 h, MTT.
The mark [14] stands for this setting: read-out: CC50(μM) HPC, normal cells, 24 h, MTT.

Read-outs that look alike come from different tables or passages of the source. Some results are limits rather than exact numbers.

As to “1-[4-{2-(4-Morpholinyl)ethoxy}phenylcarbonyl]-3,5-bis(phenylmethylene)-4-piperidone hydrochloride hemihydrate [Compound 6a]”, the CC50 stood at 2.4 µM in series [1] (setting [8]); 83 µM in series [2] (setting [9]); 2.4 µM in series [4] (setting [11]); 1.2 µM in [5] (setting [12]); 30 µM in series [6] (setting [13]); 95 µM in the series on human pulp cells (HPC) (setting [14]). Further, the IC50 with COLO 205 is 22.9 µM; in the series with HCT 15, 1.45 µM; in the series on SW 620 it was 0.191 µM; with KM 12 it was 0.129 µM; in the series on human tumour cell lines it was greater than 2630 nM; with HL 60, 0.562 µM. Besides, the IC50 in the series with RPMI 8226 stood at 0.123 µM; in the series with K 562, 0.158 µM; in the series with HCT 116, 0.339 µM. The “CC50(μM) ave” value in series [3] (setting [10]) worked out at 2.0 µM.
In the case of “1-[4-(2-Diethylaminoethoxy)phenylcarbonyl]-3,5-bis(phenylmethylene)-4-piperidone hydrochloride hemihydrate [Compound 4a]”, the CC50 in series [1] (setting [8]) is 2 µM; in series [2] (setting [9]) it was 4.2 µM; in series [4] (setting [11]), 3.1 µM; in series [5] (setting [12]), 0.61 µM; in series [6] (setting [13]), 6 µM; in the series on human pulp cells (HPC) (setting [14]), 12 µM. Also, the IC50 in the series with COLO 205 is 2.63 µM; in the series on HCT 15 it was 1.17 µM; in the series on SW 620, 1.35 µM; in the series on KM 12, 1.74 µM; in the series with human tumour cell lines, less than 1380 nM; with RPMI 8226, less than 0.01 µM. The half-maximal inhibitory concentration (IC50) is 0.043 µM in the series on K 562 and less than 0.01 µM in the series with HCT 116. The “CC50(μM) ave” value in series [3] (setting [10]) is 1.9 µM.
With `CC[N+](C)(CC)CCOc1ccc(C(=O)N2CC(=Cc3ccc(Cl)cc3)C(=O)C(=Cc3ccc(Cl)cc3)C2)cc1.[I-]` [Compound 7b, 3,5-bis(4-Chlorophenylmethylene)-1-[4-(2-diethylaminoethoxy)phenylcarbonyl]-4-piperidone methoiodide], the CC50 in series [1] is 220 µM; in series [2], greater than 400 µM; in series [3], no less than 228000 nM; in series [4], greater than 400 µM; in series [5], 64 µM; in series [6], 9.4 µM. The molecule also returned a CC50 in the series on human pulp cells (HPC) greater than 400 µM. The “FAR value 4 μg/ml” value in series [7] stood at 1.21. The “FAR value 40 μg/ml” value in [7] stood at 1.85.
Take `O=C1C(=Cc2ccc(Cl)cc2)CNCC1=Cc1ccc(Cl)cc1` [Compound 1b]: the CC50 in series [1] turned out to be 20 µM; in [2], 69 µM; in series [4], 18 µM; in series [5], 22 µM; in [6] it was 56 µM; in the series on human pulp cells (HPC), 130 µM. The “FAR value 4 μg/ml” value in series [7] was determined as 1.25. Besides, the “FAR value 40 μg/ml” value in series [7] is listed as 0.91. Besides, in series [3], the “CC50(μM) ave” value is 20 µM.
Consider `Cc1ccc(C=C2CN(C(=O)c3ccc(OCCN4CCCCC4)cc3)CC(=Cc3ccc(C)cc3)C2=O)cc1.Cc1ccc(C=C2CN(C(=O)c3ccc(OCCN4CCCCC4)cc3)CC(=Cc3ccc(C)cc3)C2=O)cc1.Cl.Cl.O` [Compound 5d, 3,5-bis(4-Methylphenylmethylene)-1-[4-{1-piperidinyl)ethoxy}phenylcarbonyl]-4-piperidone hydrochloride hemihydrate], for which the CC50 in series [1] came out at 4.1 µM; in series [2], 6 µM; in series [4], 2.9 µM; in series [5], 2.3 µM; in series [6] it was 5.5 µM; in the series on human pulp cells (HPC), 15 µM. For the same molecule, the IC50 was found to be 6.92 µM in the series on COLO 205; 1.07 µM with HCT 15; 0.339 µM in the series with SW 620; 0.148 µM in the series on KM 12 (48 h); 1380 nM in the series with human tumour cell lines; 0.933 µM in the series on HL 60. For the same molecule, the IC50 with RPMI 8226 is 0.123 µM; in the series on K 562, 0.589 µM; in the series with HCT 116, 1.58 µM.
For the molecule “3,5-bis(4-Methyl phenylmethylene)-1-[4-{2-(4-morpholinyl)ethoxy}phenylcarbonyl]-4-piperidone hydrochloride hemihydrate [Compound 6d]”, the CC50 in [1] (setting [8]) is 2 µM; in [2] (setting [9]), 10 µM; in [4] (setting [11]) it was 1.6 µM; in series [5] (setting [12]), 1.2 µM; in [6] (setting [13]), 12 µM; with human pulp cells (HPC) (setting [14]), 49 µM. The IC50 in the series with COLO 205 was 1.15 µM; with SR, 0.245 µM; with HCT 15, 0.832 µM; with SW 620, 1.02 µM; in the series on KM 12 it was 1.12 µM; in the series on human tumour cell lines it was less than 708 nM. Moreover, the IC50 came to 1.1 µM in the series on HL 60, 0.115 µM in the series with RPMI 8226, 0.275 µM in the series on K 562 and 2.45 µM in the series with HCT 116. Further, the “CC50(μM) ave” value in [3] (setting [10]) stood at 1.6 µM.
Consider `Cl.O=C1C(=Cc2ccc(Cl)cc2)CN(C(=O)c2ccc(OCCN3CCOCC3)cc2)CC1=Cc1ccc(Cl)cc1` [Compound 6b, 3,5-bis(4-Chlorophenylmethylene)-1-[4-{2-(4-morpholinyl)ethoxy}phenylcarbonyl-4-piperidone hydrochloride], for which the CC50 in series [1] was 18 µM; in series [2], 400 µM; in series [4], 71 µM; in [5], 36 µM; in series [6], 360 µM; in the series on human pulp cells (HPC), greater than 400 µM. In addition, the IC50 in the series with HCT 15 is 2.19 µM; with SW 620, 1.45 µM; in the series on KM 12 (48 h), 2.29 µM; with human tumour cell lines, less than 562 nM; in the series with HL 60 it was 5.5 µM; with HCC 2998, less than 0.005 µM. Also, the half-inhibitory concentration (IC50) with RPMI 8226 stood at 0.132 µM; in the series with K 562 it was 6.76 µM; in the series on HCT 116, 7.25 µM.
